Measurements taken from article PMC7766225, “Structure-Based Discovery and Bioactivity Evaluation of Novel Aurora-A Kinase Inhibitors as Anticancer Agents via Docking-Based Comparative Intermolecular Contacts Analysis (dbCICA)” (Molecules, 2020).

Target: T1, Aurora-A kinase (Homo sapiens, UniProt O14965)
T1 construct: purchased Invitrogen (Carlsbad, CA, USA)
T1 sequence (O14965 1-403): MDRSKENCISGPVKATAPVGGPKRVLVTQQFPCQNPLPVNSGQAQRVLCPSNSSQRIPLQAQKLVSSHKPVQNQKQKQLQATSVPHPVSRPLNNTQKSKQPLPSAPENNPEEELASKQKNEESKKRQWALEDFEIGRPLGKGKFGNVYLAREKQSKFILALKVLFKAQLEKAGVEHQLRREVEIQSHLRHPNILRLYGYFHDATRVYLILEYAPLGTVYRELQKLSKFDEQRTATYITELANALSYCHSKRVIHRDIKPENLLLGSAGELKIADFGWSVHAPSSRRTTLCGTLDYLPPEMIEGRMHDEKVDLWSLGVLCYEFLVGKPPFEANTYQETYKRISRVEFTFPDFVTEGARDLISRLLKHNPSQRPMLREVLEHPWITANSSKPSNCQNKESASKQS
Assay: FRET-based Z'-LYTE kinase enzyme inhibition assay
Type: biochemical
Settings: 10 µM, duplicates, Z'-LYTE
Procedure: This bioassay was conducted using Z′-LYTE® kinase assay (Invitrogen, Carlsbad, CA, USA) [68, 69]. This biochemical assay depends on fluorescence emission as detection method utilizing a synthetic fluorescence resonance energy transfer (FRET) peptide with two fluorophores: coumarin that work as donor and fluorescein as acceptor [69]. Each hit or compound was dissolved in DMSO to form 10 mM stock solution. Hits were screened at 10 μM concentration. The bioassay was performed in black 384-well plate. For each assay, 100 nL of tested compound stock solution (10 mM) was mixed with 2.4 μL kinase buffer, 5 μL (peptide substrate/Aurora-A Kinase) mixture, and 2.5 μL ATP solution.
The tests were conducted in duplicates.

Row | SMILES | % Inhibition at 10 µM [%]
1 | COc1ccc(C(=O)CCCCC(=O)c2ccc(OC)cc2)cc1 [Hit 114] | 4
2 | COc1ccc(C=Cc2ccc3ccccc3n2)cc1 [Hit 121] | -2
3 | COc1ccc(C=Cc2ccc(Cl)cc2)cc1 [Hit 128] | -5
4 | COc1ccc(N=Nc2ccc(OC)cc2)cc1 [Hit 134] | 8
5 | COc1ccc(NC(=O)c2ccc(Cl)cc2)cc1 [Hit 138] | -1
6 | CN(C)CC(O)c1ccc(C=Cc2ccc(Cl)cc2)cc1 (centres unmarked) [Hit 143] | -72
7 | COc1ccc(NC(=O)CC(=O)Nc2ccc(OC)cc2)cc1 [Hit 101] | 6
8 | O=[N+]([O-])c1ccc(S(=O)(=O)NN=Cc2ccco2)cc1 [Hit 136] | 5
9 | COc1ccc(CCc2ccc3cc(OC)ccc3n2)cc1 [Hit 98] | -5
10 | COc1ccc(NC(=O)c2ccc(Cl)cc2Cl)cc1 [Hit 108] | -7
11 | COc1ccc(CCCCCCc2ccc(OC)cc2)cc1 [Hit 115] | -1
12 | CC(Cc1ccccc1)NCC(=O)c1ccc(O)c(O)c1 (centres unmarked) [Hit 107] | 25
13 | O=[N+]([O-])c1ccc(COc2ccc(Cl)cc2)cc1 [Hit 142] | -3
14 | CCCCN[C@@H](c1ccc(OC)cc1)[C@H](O)c1ccc(OC)cc1 [Hit 81] | 3
15 | CCOc1ccc(N=C(C)Nc2ccc(OCC)cc2)cc1 [Hit 110] | 3
16 | O=C(CCCc1ccc([N+](=O)[O-])cc1)c1ccccc1 [Hit 153] | -6
17 | CCOc1ccc(NC(=O)Nc2ccc(OCC)cc2)cc1 [Hit 125] | -1
18 | COc1ccc(/N=N/c2ccc(O)cc2)cc1 [Hit 135] | 7
19 | COc1ccc(C[N+](C)(C)Cc2ccc(OC)cc2)cc1 [Hit 120] | -2
20 | CCCCNC(C(=O)c1ccc(OC)cc1)c1ccc(OC)cc1 (centres unmarked) [Hit 144] | 0
21 | CCC(=Cc1ccc(OC)cc1)C(=O)c1ccc(OC)cc1 [Hit 126] | -2
22 | COc1ccc(CCC(N)c2ccc(OC)cc2)cc1 (centres unmarked) [Hit 122] | -1
23 | COc1ccc(C=NCCN=Cc2ccc(OC)cc2)cc1 [Hit 129] | 3

Row | SMILES | % Inhibition at 10 µM [%]
24 | COc1ccc([C@@H](O)Cc2ccc(Cl)cc2)cc1 [Hit 140] | -7
25 | COc1ccc(C=NNS(=O)(=O)c2ccc(NC(C)=O)cc2)cc1 [Hit 89] | 2
26 | CCOC(=O)C(=Cc1cc(C)c(OC(C)=O)c(OC)c1)NC(=O)c1ccccc1 [Hit 97] | -4
27 | COc1ccc(C(=O)OCc2ccc3c(c2)OCO3)cc1 [Hit 90] | -2
28 | O=C(CNCCCc1ccccc1)c1ccc(O)c(O)c1 [Hit 147] | 14
29 | O=[N+]([O-])c1cccc(S(=O)(=O)Nc2ccc(Cl)cc2)c1 [Hit 118] | 7
30 | C[n+]1c(/C=C/c2ccc([N+](=O)[O-])cc2)oc2ccccc21 [Hit 111] | 1
31 | COc1ccc(C(=O)Oc2ccc(C=O)cc2OC)cc1 [Hit 109] | -142
32 | COc1cccc(CC(C)NCC(O)c2ccc(O)c(O)c2)c1 (centres unmarked) [Hit 152] | 1
33 | O=C(Oc1ccc(Cl)cc1Cl)c1ccc([N+](=O)[O-])cc1 [Hit 137] | -30
34 | COc1ccc(C(Cc2ccc(Cl)cc2)NCCO)cc1 (centres unmarked) [Hit 92] | 3
35 | CC(=O)Nc1ccc(S(=O)(=O)NN=Cc2cc(Cl)ccc2O)cc1 [Hit 103] | 12
36 | COc1ccc2c(ccc[n+]2CC(=O)c2ccc(SC)cc2)c1 [Hit 93] | 14
37 | COc1ccc(C(=O)OCc2ccc3c(c2)OCO3)cc1 [Hit 94] | -2
38 | CCNC(Cc1ccc(OC)cc1)c1ccc(OC)cc1 (centres unmarked) [Hit 91] | -2
39 | COc1cccc(/C=C/C(=O)/C=C/C=C/c2ccccc2)c1 [Hit 96] | 0
40 | COc1ccc(CC(C)NCC(O)c2ccc(O)c(O)c2)cc1 (centres unmarked) [Hit 95] | 30
41 | CC(=NNS(=O)(=O)c1ccc([N+](=O)[O-])cc1)c1ccc(C)cc1 [Hit 86] | 12
42 | Cc1cc[n+](CC(=O)c2ccc([N+](=O)[O-])cc2)cc1 [Hit 146] | 4
43 | COc1ccc(OC(=O)c2ccc(Cl)cc2)cc1 [Hit 127] | 0
44 | COc1ccc(-c2oc3ccc(C)cc3c(=O)c2O)cc1 [Hit 80] | 20
45 | O=C(NC(Cc1ccc2c(c1)OCO2)C(=O)O)c1ccccc1 (centres unmarked) [Hit 139] | 6
46 | CC[C@@H](C(=O)c1ccc(OC)cc1)c1ccc(OC)cc1 [Hit 119] | -3

Row | SMILES | % Inhibition at 10 µM [%]
47 | O=C(OCC=Cc1ccccc1)c1ccc([N+](=O)[O-])cc1 [Hit 131] | 3
48 | NC[C@@H](O)c1ccc(Nc2ccnc3cc(Cl)ccc23)cc1 [Hit 104] | 23
49 | COc1ccc(CC(=O)c2ccc(OC)cc2)cc1 [Hit 150] | -3
50 | NOS(=O)c1ccc(N=CC=Cc2ccccc2)cc1 (centres unmarked) [Hit 116] | 21
51 | CC(Cc1ccccc1)=NNS(=O)(=O)c1ccc([N+](=O)[O-])cc1 [Hit 83] | 7
52 | Cc1ccc[n+](CC(=O)c2ccc([N+](=O)[O-])cc2)c1 [Hit 106] | 6
53 | COc1ccc(C2OC(c3ccc(OC)cc3)c3ccccc32)cc1 (centres unmarked) [Hit 133] | 3
54 | COc1ccc(CC(=O)c2ccc(OC)c(OC)c2)cc1OC [Hit 117] | 7
55 | COc1ccc(CNCCNCc2ccc(OC)cc2)cc1 [Hit 100] | 7
56 | COc1ccc(/C=N/N=C/c2ccc(OC)cc2)cc1 [Hit 82] | 5
57 | Oc1ccc(/C=C/c2ccc(Cl)cc2)cc1 [Hit 151] | -7
58 | CNC(Cc1ccc(OC)cc1)c1ccc(OC)cc1 (centres unmarked) [Hit 154] | -2
59 | COc1ccc(C(N)C(O)c2ccc(OC)cc2)cc1 (centres unmarked) [Hit 145] | 0
60 | COc1ccc(C(=O)[C@H](CN(C)C)c2ccc(OC)cc2)cc1 [Hit 105] | 1
61 | Cc1ccc(S(=O)(=O)Nc2ccc3cc([N+](=O)[O-])ccc3c2[N+](=O)[O-])cc1 [Hit 132] | 22
62 | COc1ccc(N=[N+]([O-])c2ccc(OC)cc2)cc1 [Hit 148] | -3
63 | COc1cccc(C(N)CCc2cc(OC)c(OC)c(OC)c2)c1 (centres unmarked) [Hit 124] | -2
64 | COc1ccc(C(=O)C(O)c2ccc(OC)cc2)cc1 (centres unmarked) [Hit 149] | -1
65 | O=C(NCCc1ccccc1)c1ccc([N+](=O)[O-])cc1 [Hit 87] | -4
66 | COc1ccc(C(=O)C=Cc2ccc3c(c2)OCO3)cc1 [Hit 113] | 8
67 | COc1ccc(C(=O)OCc2ccc3c(c2)OCO3)cc1 [Hit 99] | 5
68 | CC(=O)Nc1ccc(S(=O)(=O)NN=Cc2ccc(C)cc2)cc1 [Hit 102] | 6

Target: T1, Aurora-A kinase
Assay: not given
Settings: Table S1, ChEMBL; ref Bebbington, et al., 2009; cited from earlier work

Row | SMILES | Ki [nM]
69 | Cc1cc(Nc2nc(-c3ccncc3)nc3ccccc23)n[nH]1 [Compound 29] | 81
70 | CC(=O)Nc1ccc(Sc2nc(C)cc(Nc3cc(C)[nH]n3)n2)cc1 [Compound 50] | 18
71 | CC(=O)Nc1ccc(Sc2nccc(Nc3cc(C)[nH]n3)n2)cc1 [Compound 49] | 86

Same assay, conditions: Table S1, ChEMBL; ref Mortlock, et al., 2007; cited from earlier work

Row | SMILES | Ki [nM]
72 | COc1cc2c(Nc3cc(CC(=O)Nc4cccc(O)c4)[nH]n3)ncnc2cc1OCCCN1CCC(CO)CC1 [Compound 9] | 4000
73 | COc1cc2c(Nc3cc(CC(=O)Nc4ccc(F)cc4)[nH]n3)ncnc2cc1OCCCN1CCC(CO)CC1 [Compound 4] | 2000
74 | COc1cccc(NC(=O)Cc2cc(Nc3ncnc4cc(OCCCN5CCC(CO)CC5)c(OC)cc34)n[nH]2)c1 [Compound 10] | 1900
75 | COc1cc2c(Nc3cc(CC(=O)Nc4cccc(F)c4)[nH]n3)ncnc2cc1OCCCNCCO [Compound 15] | 690
76 | COc1cc2c(Nc3cc(CC(=O)Nc4cccc(F)c4F)[nH]n3)ncnc2cc1OCCCN(CCO)CC(C)C [Compound 21] | 18
77 | COc1cc2c(Nc3cc(CC(=O)Nc4ccccc4F)[nH]n3)ncnc2cc1OCCCN1CCC(CO)CC1 [Compound 2] | 1400
78 | COc1cc2c(Nc3cc(CC(=O)Nc4cc(F)cc(F)c4)[nH]n3)ncnc2cc1OCCCN1CCC(CO)CC1 [Compound 6] | 230
79 | COc1cc2c(Nc3cc(CC(=O)Nc4cccc(F)c4F)[nH]n3)ncnc2cc1OCCCN1CCC(CCO)CC1 [Compound 14] | 280
80 | COc1cc2c(Nc3cc(CC(=O)Nc4cccc(F)c4F)[nH]n3)ncnc2cc1OCCCN1CCN(CCO)CC1 [Compound 12] | 55
81 | COc1cc2c(Nc3cc(CC(=O)Nc4cccc(F)c4)[nH]n3)ncnc2cc1OCCCN(C)CCO [Compound 16] | 65
82 | COc1cc2c(Nc3cc(CC(=O)Nc4cccc(F)c4F)[nH]n3)ncnc2cc1OCCCN1CCC(O)CC1 [Compound 13] | 220

Same assay, conditions: Table S1, ChEMBL; ref Pollard and Mortimore, 2009; cited from earlier work

Row | SMILES | Ki [nM]
83 | CC(=O)Nc1ccc(Sc2nc(Nc3cc(C)[nH]n3)c3ccccc3n2)cc1 [Compound 28] | 4

Same assay, conditions: Table S1, ChEMBL; ref Wang, et al., 2010; cited from earlier work

Row | SMILES | Ki [nM]
84 | Cc1nc(C)c(-c2ccnc(Nc3ccc(N(C)C)cc3)n2)s1 [Compound 65] | 6.9
85 | CNc1nc(C)c(-c2ccnc(Nc3cc(OC)c(OC)c(OC)c3)n2)s1 [Compound 69] | 1
86 | Cc1nc(C)c(-c2ccnc(Nc3ccc(N)cc3)n2)s1 [Compound 67] | 31
